Where “and” joins values, the source holds several entries; their conditions need not be identical. Identical values can stand only once.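 A five-concentration, 48-hour dose response in 96-well plates underlies each endpoint, interpolated linearly between surrounding concentrations. Here, GI50 denotes the concentration required for 50% inhibition of growth. TGI denotes the concentration required for complete inhibition of growth.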
Assays:
Experiment in all cases: DTP human tumour cell line panel, 48 h
A549 NSCLC = system: A549 NSCLC
HT29 colon = system: HT29 colon
OVCAR-5 ovarian = system: OVCAR-5 ovarian
RPMI-8226 leukemia = system: RPMI-8226 leukemia
SK-MEL-28 melanoma = system: SK-MEL-28 melanoma
SN12C renal = system: SN12C renal
SNB-19 CNS = system: SNB-19 CNS
SNB-75 CNS = system: SNB-75 CNS
SW-620 colon = system: SW-620 colon
U251 CNS = system: U251 CNS

Row | Compound | TGI (A549 NSCLC) [µM] | TGI (HT29 colon) [µM] | TGI (OVCAR-5 ovarian) [µM] | TGI (RPMI-8226 leukemia) [µM] | TGI (SK-MEL-28 melanoma) [µM] | TGI (SN12C renal) [µM] | TGI (SNB-19 CNS) [µM] | GI50 (SNB-75 CNS) | TGI (SNB-75 CNS) | TGI (SW-620 colon) [µM] | TGI (U251 CNS) [µM] | GI50 (A549 NSCLC) [µM] | GI50 (HT29 colon) [µM] | GI50 (OVCAR-5 ovarian) [µM] | GI50 (RPMI-8226 leukemia) [µM] | GI50 (SK-MEL-28 melanoma) [µM] | GI50 (SN12C renal) [µM] | GI50 (SNB-19 CNS) [µM] | GI50 (SW-620 colon) [µM] | GI50 (U251 CNS) [µM]
1 | CC(=O)OCC1OC(n2c(=S)n(-c3ccccc3)c(=O)c3cc(Br)ccc32)C(OC(C)=O)C(OC(C)=O)C1OC(C)=O (centres undefined) | > 100 | > 100 | > 100 | > 100 | > 100 | > 100 | > 100 | 33.8 µM and > 100 µM | 99.2 µM and > 100 µM | > 100 | > 100 | – | – | – | – | – | – | – | – | –
2 | O=C1C(CO)=C[C@@H](O)[C@H]2O[C@@H]12 | > 100 | > 100 | > 100 | > 100 | > 100 | 36.3 | – | – | > 100 µM | > 100 | > 100 | – | – | – | – | – | – | – | – | –
3 | O=C(Nc1nc(-c2ccccc2)cs1)c1cc(O)c(O)c(O)c1 | 51.4 | 44.1 | 47.7 | 22.1 | 60.8 | 29.9 | > 100 | 1.92 µM | > 100 µM | 37.4 | 21 | 5.62 | 5.95 | 18.2 | 2.99 | 7.18 | 3.19 | 2.61 | 2.66 | 2.88
4 | CCCC(CCC)Oc1ccc(CCCC2=C(O)c3ccccc3C(=O)C2=O)cc1 | 22.4 | 17.9 | 25.8 | 7.49 | 21.7 | 22.5 | – | 11.3 µM | 26.3 µM | 17 | 17.5 | 4.11 | 6.2 | 11.8 | 2.9 | 10.1 | 6.79 | – | 4.61 | 5.37
5 | OCC#CCCCCOCC#Cc1ccccc1C#CCOCCCCC#CCO | > 100 | 63.6 | > 100 | 87.8 | 51.6 | 39 | > 100 | 20.6 µM | 66.2 µM | 50.9 | 35.2 | 39.8 | 21.2 | 48.4 | 29.3 | 20.1 | 22.3 | 28.9 | 21.9 | 17.2
6 | C[C@@H]1CC[C@@H]2[C@@H]1[C@H](OC(=O)c1ccc3ccccc3c1)[C@]1(C3CCCCC3)C[C@@H](OC(=O)CO)[C@@]2(C)O1 | 21.7 | 18.3 | 30 | 22.8 | 28.5 | 12.6 | 28.8 | 0.546 µM | 18.8 µM | 30.4 | 23 | 8.12 | 4.38 | 14.8 | 5.03 | 13.9 | 0.0525 | 14.6 | 13 | 10.9
7 | CC(=O)[O][Hg][CH2]C1(C)COC(C)([CH2][Hg][O]C(C)=O)CO1 (centres undefined) | 38.4 | > 59.2 | > 63.8 | 8.29 | 3.06 | 4.49 | 30 | 17.7 µM | 34 µM | 3.11 | 2.79 | 7.79 | 6.67 | > 49.2 | 1.17 | 1.64 | 0.887 | 16.1 | 1.51 | 1.44
8 | Cc1nnc2n1N=C(c1ccc(-c3ccc([N+](=O)[O-])cc3)o1)CS2 | > 100 | – | > 100 | > 100 | > 100 | > 100 | > 100 | – | > 100 µM | > 100 | > 100 | – | – | – | – | – | – | – | – | –
9 | CC(=O)OC1CC2(O)C(CCC3(C)C(c4ccc(=O)oc4)CCC32O)C2(C)CCC(OC3OC(CO)C(O)C(O)C3O)C=C12 (centres undefined) | 0.0278 | 0.381 | 0.168 | 0.162 | 0.231 | – | 0.165 | 0.0333 µM | 0.192 µM | 0.144 | 0.136 | < 0.01 | 0.045 | 0.044 | 0.0309 | 0.049 | – | 0.0461 | 0.0275 | 0.0348
10 | COC(=O)[C@@H]1[C@H](O)[C@H](C)[C@H](O)[C@H](C)/C=C\C=C(C)C(=O)Nc2c(C)c(OC(C)=O)c3c(c2O)C(=O)C(C)=C2OCOC(=C23)C(C)=C[C@@](C)(O)[C@H](O)[C@@H](C)[C@H]1OC(C)=O | – | > 100 | > 100 | 56.9 | > 100 | > 100 | > 100 | – | > 100 µM | > 100 | > 100 | – | – | – | – | – | – | – | – | –
11 | COC(=O)c1ccc(NC(N)=NCC(C)(C)COc2ccc(C(F)(F)F)cc2)nc1 | 3.17 | 3.21 | 3.08 | 3.64 | 3.08 | 3.41 | – | 1.57 µM | 3.27 µM | – | 3.05 | 1.63 | 1.66 | 1.6 | 1.3 | 1.64 | 1.79 | – | – | 1.61
12 | CC1NCCc2c1[nH]c1cc(O)ccc21 (centres undefined) | > 100 | > 100 | > 100 | > 100 | > 100 | > 100 | > 100 | – | > 100 µM | > 100 | – | – | – | – | – | – | – | – | – | –
13 | Cc1ccccc1NC(=O)C(=O)CC(=O)C1CCOC1=O (centres undefined) | > 100 | – | > 100 | > 100 | > 100 | > 100 | > 100 | – | > 100 µM | > 100 | > 100 | – | – | – | – | – | – | – | – | –
14 | Clc1ccc(-c2nc(C(Cl)Cl)nc3cc(-c4ccccc4)nn23)cc1 | 2.34 | > 50 | > 50 | > 50 | – | > 50 | > 50 | 0.957 µM | > 50 µM | > 50 | > 50 | 0.875 | 0.751 | 1.53 | 2.54 | – | > 50 | 1.49 | 1.01 | 1.12
15 | CCCCCCCC(=O)NS(=O)(=O)c1ccccc1 | > 100 | > 100 | – | > 100 | > 100 | – | > 100 | – | > 100 µM | > 100 | > 100 | – | – | – | – | – | – | – | – | –

From PubChem BioAssay (NCI)
